Reference: article PMC7545187, “Endocrine disruption of vitamin D activity by perfluoro-octanoic acid (PFOA)” (Scientific Reports, 2020)

Biological target: T1, Vitamin D receptor (VDR) (Homo sapiens, UniProt P11473)
T1 sequence (P11473 1-427): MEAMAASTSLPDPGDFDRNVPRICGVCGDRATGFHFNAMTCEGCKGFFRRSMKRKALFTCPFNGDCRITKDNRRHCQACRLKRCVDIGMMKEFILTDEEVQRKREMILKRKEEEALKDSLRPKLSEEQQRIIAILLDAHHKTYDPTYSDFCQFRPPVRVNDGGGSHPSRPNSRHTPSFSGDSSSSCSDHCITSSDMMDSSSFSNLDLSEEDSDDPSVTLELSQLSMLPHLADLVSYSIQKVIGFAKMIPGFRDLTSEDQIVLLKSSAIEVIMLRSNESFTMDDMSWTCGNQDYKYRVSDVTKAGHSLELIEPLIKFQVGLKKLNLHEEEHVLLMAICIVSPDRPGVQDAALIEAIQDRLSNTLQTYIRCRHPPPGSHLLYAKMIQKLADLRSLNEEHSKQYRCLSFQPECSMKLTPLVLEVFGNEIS
Assay: SPR competition: PFOA ([…]) with […](OH)D over immobilized VDR; […] decrease, no Kd for PFOA
Assay type: binding

## O=C(O)C(F)(F)C(F)(F)C(F)(F)C(F)(F)C(F)(F)C(F)(F)C(F)(F)F [PFOA, perfluorooctanoic acid]
  % decrease: 10 % decrease
